Measurements as given in US8513232B2, “Substituted spirocyclic piperidine derivatives as histamine-3 (H3) receptor ligands” (Cephalon, Inc., priority 2008, dated 2013).
Read-outs that look alike come from different tables or passages of the source.

Key:
[1] = biological target: T1, human H3 receptor (Homo sapiens, UniProt Q9Y5N1); experiment: Human H3 radioligand binding ([3H]-N-alpha-methylhistamine, SPA)
T1 construct: expressed in transfected cells
In short: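 Compounds (0.01 nM-30 μM) competed with approximately 1 nM [3H]-N-alpha-methylhistamine for human H3 receptor in membranes of stably transfected CHO cells, 10 μg protein per well, in Tris-HCl pH 7.4/MgCl2/BSA buffer for 4 h at room temperature. Bound radioligand measured by scintillation proximity; 10 μM clobenpropit gave non-specific binding.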

[2] = biological target: T2, rat histamine H3 receptor (Rattus norvegicus, UniProt Q9QYN8); experiment: Rat H3 radioligand binding ([3H]-N-alpha-methylhistamine, SPA)
T2 construct: encoding the entire 445-amino-acid rat histamine H3 receptor; expressed in transfected cells; membrane preparation
In short: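 SPA-bead binding assay using [3H]-N-alpha-methylhistamine (approximately 1 nM final) with test compounds from 0.01 nM to 30 μM. Rat H3 receptor membranes came from stably transfected CHO-A3 cells; incubation ran 4 h at room temperature, in the dark, in Tris pH 7.4 buffer with MgCl2 and BSA. Clobenpropit (10 μM) gave non-specific binding.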

[3] = human H3 binding, Table D, read-out: Human H3 Ki
[4] = rat H3 binding, Table D, read-out: Rat H3 Ki
[5] = Human H3 binding, Table B, Examples 136-362, read-out: hum H3 binding Ki
[6] = Rat H3 binding, Table B, Examples 136-362, read-out: rat H3 binding Ki
[7] = Table C, human H3 binding, read-out: Human H3 Ki
[8] = Table C, rat H3 binding, read-out: Rat H3 Ki
[9] = Table A, human H3 binding, read-out: Human Ki
[10] = Table A, rat H3 binding, read-out: Rat Ki

T1 sequence (Q9Y5N1 whole entry): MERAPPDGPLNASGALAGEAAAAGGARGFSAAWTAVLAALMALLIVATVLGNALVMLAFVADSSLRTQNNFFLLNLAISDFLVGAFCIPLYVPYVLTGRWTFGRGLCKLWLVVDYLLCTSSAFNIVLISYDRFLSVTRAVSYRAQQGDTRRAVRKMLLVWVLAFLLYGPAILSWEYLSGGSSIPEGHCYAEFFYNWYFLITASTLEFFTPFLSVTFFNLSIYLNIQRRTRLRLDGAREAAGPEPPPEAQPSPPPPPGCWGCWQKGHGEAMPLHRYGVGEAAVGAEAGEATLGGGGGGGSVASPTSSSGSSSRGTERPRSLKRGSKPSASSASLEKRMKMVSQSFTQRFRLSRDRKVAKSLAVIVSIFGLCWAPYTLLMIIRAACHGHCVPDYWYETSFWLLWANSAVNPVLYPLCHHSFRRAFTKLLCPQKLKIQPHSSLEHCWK
T2 sequence (Q9QYN8 whole entry): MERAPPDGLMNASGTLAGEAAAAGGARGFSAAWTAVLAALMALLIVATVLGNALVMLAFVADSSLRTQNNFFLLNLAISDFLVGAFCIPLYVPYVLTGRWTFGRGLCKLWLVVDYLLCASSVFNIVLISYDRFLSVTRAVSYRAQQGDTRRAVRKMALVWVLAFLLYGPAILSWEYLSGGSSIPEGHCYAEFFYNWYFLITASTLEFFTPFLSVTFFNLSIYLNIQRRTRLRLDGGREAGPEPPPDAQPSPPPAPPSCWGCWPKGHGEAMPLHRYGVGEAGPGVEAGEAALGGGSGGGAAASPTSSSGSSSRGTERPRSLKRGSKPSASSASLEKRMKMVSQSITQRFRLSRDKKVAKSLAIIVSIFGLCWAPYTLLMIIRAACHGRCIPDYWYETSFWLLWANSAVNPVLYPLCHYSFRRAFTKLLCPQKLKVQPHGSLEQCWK

Compound	Ki [1, 3]	Ki [2, 4]	melting point	other results
CCOC(=O)C1CCC(Oc2ccc3c(c2)CCC2(CCN(C4CCC4)CC2)O3)CC1 (stereo not drawn) [Example 456]			236 to 238 °C	Ki ([1]; read-out: Human H3 Ki): < 200 nM; Ki ([2]; read-out: Rat H3 kI): < 200 nM
O=C(C1CC(O)(c2ccc3c(c2)CCC2(CCN(C4CCC4)CC2)O3)C1)N1CCCC1 (stereo not drawn) [Example 569]			180 to 181 °C	Ki ([1]; read-out: Human H3 Ki): < 200 nM; Ki ([2]; read-out: Rat H3 kI): < 200 nM
c1cc2c(cc1N1CCCC1)CCC1(CCN(C3CCC3)CC1)O2 [Example 420]			> 275 °C (dec.)	Ki [1, 7]: < 200 nM; Ki [2, 8]: < 200 nM
O=c1ccc(-c2ccc3c(c2)COC2(CCN(CCC4CCOCC4)CC2)O3)c[nH]1 [Example 703]	200 to 1000 nM	> 1000 nM	214 to 216 °C	
OC1CC2(CCN(C3CCC3)CC2)Oc2ccc(OCc3ccccc3)cc21 (stereo not drawn) [Example 190]			69 to 71 °C	Ki [1, 5]: < 200 nM; Ki [2, 6]: 200 to 1000 nM
CCc1nnc(COc2ccc3c(c2)CCC2(CCN(C4CCC4)CC2)O3)o1 [Example 678]	< 200 nM	< 200 nM	170 to 172 °C	
O=C(Nc1ccc2c(c1)COC1(CCN(C3CCC3)CC1)O2)c1cccnc1 [Example 149]			215 to 217 °C	Ki [1, 5]: < 200 nM; Ki [2, 6]: < 200 nM
Cc1cc(C(N)=O)cc(C)c1-c1ccc2c(c1)COC1(CCN(C3CCC3)CC1)O2 [Example 751]	< 200 nM	< 200 nM	156 to 158 °C	
COCCNC(=O)c1cc(-c2ccc3c(c2)COC2(CCN(C4CCC4)CC2)O3)cs1 [Example 578]	< 200 nM	< 200 nM	145 to 146 °C	
COCCN(C)C(=O)c1ccc(-c2ccc3c(c2)CCC2(CCN(C4CCC4)CC2)O3)cc1Cl [Example 575]	< 200 nM	< 200 nM	101 to 104 °C	
N#Cc1cnc(Nc2ccc3c(c2)COC2(CCN(C4CCC4)CC2)O3)s1 [Example 128]			217 to 218 °C	Ki [1, 9]: < 200 nM; Ki [2, 10]: < 200 nM
CN1CCN(c2ccc3c(c2)CCC2(CCN(C4CCC4)CC2)O3)C1=O [Example 121]			228 to 230 °C	Ki [1, 9]: < 200 nM; Ki [2, 10]: < 200 nM
O=C(Nc1ccc(Cl)cc1)Nc1ccc2c(c1)COC1(CCN(C3CCC3)CC1)O2 [Example 184]			201 to 203 °C	Ki [1, 5]: < 200 nM; Ki [2, 6]: 200 to 1000 nM
COc1nc(C)c(-c2ccc3c(c2)COC2(CCN(C4CCC4)CC2)O3)cc1C#N [Example 796]	< 200 nM	< 200 nM	215 to 217 °C	
O=c1ccc(Oc2ccc3c(c2)CCC2(CCN(C4CCC4)CC2)O3)c[nH]1 [Example 485]			284 to 286 °C	Ki ([1]; read-out: Human H3 Ki): < 200 nM; Ki ([2]; read-out: Rat H3 kI): < 200 nM
O=S1(=O)CCC(O)(c2ccc3c(c2)COC2(CCN(C4CCC4)CC2)O3)CC1 [Example 517]			240 to 241 °C	Ki ([1]; read-out: Human H3 Ki): < 200 nM; Ki ([2]; read-out: Rat H3 kI): < 200 nM
O=C(Nc1ccc2c(c1)COC1(CCN(C3CCC3)CC1)O2)c1cncs1 [Example 271]			222 to 224 °C	Ki [1, 5]: < 200 nM; Ki [2, 6]: < 200 nM

Compound	Ki [1, 3]	Ki [2, 4]	melting point	other results
Cc1cc(C(=O)Nc2ccc3c(c2)COC2(CCN(C4CCC4)CC2)O3)cc(C)n1 [Example 296]			191 to 193 °C	Ki [1, 5]: < 200 nM; Ki [2, 6]: < 200 nM
F[C@@H]1CCN(c2ccc3c(c2)CCC2(CCN(C4CCC4)CC2)O3)C1 [Example 414]			275 to 280 °C	Ki [1, 7]: < 200 nM; Ki [2, 8]: < 200 nM
Cc1c(-c2ccc3c(c2)COC2(CCN(C4CCC4)CC2)O3)cn(CC(F)(F)F)c(=O)c1C [Example 783]	< 200 nM	< 200 nM	96 to 98 °C	
FC1(F)CCN(c2ccc3c(c2)COC2(CCN(C4CCC4)CC2)O3)C1 [Example 423]			217 to 221 °C	Ki [1, 7]: < 200 nM; Ki [2, 8]: < 200 nM
O=S1(=O)CCC(O)(c2ccc3c(c2)CCC2(CCN(C4CCC4)CC2)O3)CC1 [Example 535]			213 to 215 °C	Ki ([1]; read-out: Human H3 Ki): < 200 nM; Ki ([2]; read-out: Rat H3 kI): < 200 nM
O=C(Nc1ccc2c(c1)COC1(CCN(C3CCC3)CC1)O2)c1ccncc1F [Example 277]			168 to 169 °C	Ki [1, 5]: < 200 nM; Ki [2, 6]: < 200 nM
Cc1nc2ccccc2c(=O)n1-c1ccc2c(c1)COC1(CCN(C3CCC3)CC1)O2 [Example 787]	< 200 nM	< 200 nM	206 to 207 °C	
O=C(c1ccc(-c2ccc3c(c2)COC2(CCN(C4CCC4)CC2)O3)cc1)N1CCC(O)CC1 [Example 258]			100.4 to 102.2 °C	Ki [1, 5]: < 200 nM; Ki [2, 6]: < 200 nM
Cc1cn(-c2ccc3c(c2)COC2(CCN(C4CCC4)CC2)O3)cc1CO [Example 87]			133 to 135 °C	Ki [1, 9]: < 200 nM; Ki [2, 10]: < 200 nM
COC[C@H](C)NC(=O)c1ccc(-c2ccc3c(c2)COC2(CCN(C4CCC4)CC2)O3)cc1Cl [Example 598]	< 200 nM	< 200 nM	150 to 152 °C	
O=C(c1ccc(-c2ccc3c(c2)COC2(CCN(C4CCC4)CC2)O3)cc1F)N1CC[C@H](O)C1 [Example 192]			99.5 to 100.5 °C	Ki [1, 5]: < 200 nM; Ki [2, 6]: < 200 nM
OC(c1ccc2c(c1)COC1(CCN(C3CCC3)CC1)O2)c1nccs1 (stereo not drawn) [Example 664]	< 200 nM	< 200 nM	70 to 72 °C	
O=C(Cc1ccncc1)Nc1ccc2c(c1)COC1(CCN(C3CCC3)CC1)O2 [Example 331]			170 to 172 °C	Ki [1, 5]: < 200 nM; Ki [2, 6]: < 200 nM
Cc1c(-c2ccc3c(c2)COC2(CCN(C4CCC4)CC2)O3)cn(C(C)C)c(=O)c1C [Example 776]	< 200 nM	< 200 nM	89 to 92 °C	
O=C1CCCN1CCCOc1ccc2c(c1)CCC1(CCN(C3CCC3)CC1)O2 [Example 462]			196 to 198 °C	Ki ([1]; read-out: Human H3 Ki): < 200 nM; Ki ([2]; read-out: Rat H3 kI): < 200 nM
c1cc2c(cc1C1CCOCC1)COC1(CCN(C3CCC3)CC1)O2 [Example 479]			249 to 251 °C	Ki ([1]; read-out: Human H3 Ki): < 200 nM; Ki ([2]; read-out: Rat H3 kI): < 200 nM
O=c1cc(Oc2ccc3c(c2)CCC2(CCN(C4CCC4)CC2)O3)cc[nH]1 [Example 493]			186 to 188 °C	Ki ([1]; read-out: Human H3 Ki): < 200 nM; Ki ([2]; read-out: Rat H3 kI): < 200 nM

The next lines start with results.

Ki [1, 3]	Ki [2, 4]	melting point	Compound	other results
< 200 nM	< 200 nM	143 to 145 °C	Cc1c(-c2ccc3c(c2)COC2(CCN(C4CCC4)CC2)O3)ccc(=O)n1C(F)F [Example 763]	
		221 to 222 °C	CC(C)NC(=O)c1ccc(-c2ccc3c(c2)COC2(CCN(C4CCC4)CC2)O3)cc1 [Example 301]	Ki [1, 5]: < 200 nM; Ki [2, 6]: < 200 nM
		137 to 139 °C	Cc1ccc(-c2ccc3c(c2)COC2(CCN(C4CCC4)CC2)O3)cn1 [Example 31]	Ki [1, 9]: < 200 nM; Ki [2, 10]: < 200 nM
< 200 nM	< 200 nM	151 to 154 °C	Cc1cc(=O)n(C)cc1-c1ccc2c(c1)COC1(CCN(C3CCC3)CC1)O2 [Example 709]	
		184 to 185 °C	Cc1cc(C(=O)Nc2ccc3c(c2)COC2(CCN(C4CCC4)CC2)O3)ccn1 [Example 315]	Ki [1, 5]: < 200 nM; Ki [2, 6]: < 200 nM
< 200 nM	< 200 nM	175 to 177 °C	CNC(=O)c1ccc(-c2ccc3c(c2)COC2(CCN(C4CCC4)CC2)O3)nc1 [Example 590]	
		187 to 190 °C	CN(C)C(=O)c1ccc(-c2ccc3c(c2)COC2(CCN(C4CCC4)CC2)O3)cc1 [Example 29]	Ki [1, 9]: < 200 nM; Ki [2, 10]: < 200 nM
< 200 nM	< 200 nM	200 to 202 °C	Cc1ccncc1-c1ccc2c(c1)COC1(CCN(C3CCC3)CC1)O2 [Example 745]	
		123 to 127 °C	Cc1noc(C)c1-c1ccc2c(c1)COC1(CCN(C3CCC3)CC1)O2 [Example 76]	Ki [1, 9]: < 200 nM; Ki [2, 10]: < 200 nM
		141 to 142.2 °C	CNC(=O)c1ccc(-c2ccc3c(c2)CCOC2(CCN(C4CCC4)CC2)O3)cn1 [Example 175]	Ki [1, 5]: 200 to 1000 nM; Ki [2, 6]: > 1000 nM
		201 to 203 °C	Nc1ccc(-c2ccc3c(c2)COC2(CCN(C4CCC4)CC2)O3)cn1 [Example 566]	Ki ([1]; read-out: Human H3 Ki): < 200 nM; Ki ([2]; read-out: Rat H3 kI): < 200 nM
		211 to 213 °C	CNC(=O)c1ccc(Nc2ccc3c(c2)COC2(CCN(C4CCC4)CC2)O3)nc1 [Example 130]	Ki [1, 9]: < 200 nM; Ki [2, 10]: < 200 nM
< 200 nM	< 200 nM	196 to 198 °C	O=c1cc(-c2ccc3c(c2)COC2(CCN(C4CCC4)CC2)O3)ccn1CC(F)(F)F [Example 772]	
		215 to 219 °C	CNC(=O)c1ccc(-c2ccc3c(c2)COC2(CCN(C4CCC4)CC2)O3)s1 [Example 176]	Ki [1, 5]: < 200 nM; Ki [2, 6]: < 200 nM
		276 to 277 °C	CNC(=O)c1ccc(-c2ccc3c(c2)COC2(CCN(C4CCC4)CC2)O3)cc1Cl [Example 225]	Ki [1, 5]: < 200 nM; Ki [2, 6]: < 200 nM
		122 to 124 °C	COc1ccc(-c2ccc3c(c2)COC2(CCN(C4CCC4)CC2)O3)cn1 [Example 22]	Ki [1, 9]: < 200 nM; Ki [2, 10]: < 200 nM
